Test [1] has as its target T1, human cloned CHRM4 receptor (Homo sapiens, UniProt P08173).
T1 construct: expressed in transfected cells; host or cells: CHO-K1 (M4_CHO)
T1 sequence (P08173 1-479): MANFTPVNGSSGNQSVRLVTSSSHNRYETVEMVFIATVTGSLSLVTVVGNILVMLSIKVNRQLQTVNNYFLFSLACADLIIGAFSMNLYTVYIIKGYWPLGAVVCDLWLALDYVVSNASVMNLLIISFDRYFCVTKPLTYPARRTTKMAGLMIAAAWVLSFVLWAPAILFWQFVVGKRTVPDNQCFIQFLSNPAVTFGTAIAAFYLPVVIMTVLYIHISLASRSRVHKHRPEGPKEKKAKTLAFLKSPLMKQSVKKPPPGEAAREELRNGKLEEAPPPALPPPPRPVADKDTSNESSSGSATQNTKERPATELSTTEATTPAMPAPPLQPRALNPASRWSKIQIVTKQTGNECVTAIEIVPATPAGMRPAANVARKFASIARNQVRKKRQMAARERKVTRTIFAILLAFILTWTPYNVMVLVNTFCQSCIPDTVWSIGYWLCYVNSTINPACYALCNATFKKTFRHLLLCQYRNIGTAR
In words: CHRM4 Ca++ Flux Assay (M4_CHO cells, agonist mode). The test is classed as cell-based. The following applies: for Emax / M4 FDSS PA %: Percent Activity (PA); for Emax: read-out: M4 FDSS PA %; for EC50: geometric mean if tested more than once, read-out: M4 FDSS EC50. An outline of the steps:
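Agonist-mode calcium flux in an M4-expressing CHO-K1 line: compounds were dosed at 11 points in triplicate and fluorescence was tracked for 3 min. Cells were preloaded with Ca++ dye and kept in −Ca/−Mg HBSS with 20 μM ATP for 60 min. Efficacy is scaled to carbachol EC100; EC50s come from four-parameter regression, geometric mean across runs.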

The target of test [2] is T2, Cloned human M1 receptor (CHRM1) (Homo sapiens, UniProt P11229).
T2 construct: expressed in transfected cells; host or cells: HEK293
T2 sequence (P11229 1-460): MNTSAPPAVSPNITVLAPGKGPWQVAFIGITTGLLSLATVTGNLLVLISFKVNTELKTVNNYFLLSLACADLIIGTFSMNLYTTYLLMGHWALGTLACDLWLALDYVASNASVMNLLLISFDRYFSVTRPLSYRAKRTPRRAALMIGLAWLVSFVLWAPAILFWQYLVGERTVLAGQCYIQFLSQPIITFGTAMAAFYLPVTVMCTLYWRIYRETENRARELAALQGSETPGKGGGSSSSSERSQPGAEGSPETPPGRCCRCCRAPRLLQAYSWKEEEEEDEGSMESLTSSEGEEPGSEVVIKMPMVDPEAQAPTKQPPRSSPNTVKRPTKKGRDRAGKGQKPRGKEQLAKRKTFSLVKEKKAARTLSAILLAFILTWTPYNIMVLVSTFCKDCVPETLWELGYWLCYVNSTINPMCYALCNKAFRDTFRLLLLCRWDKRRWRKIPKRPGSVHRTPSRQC
In words: CHRM1 Ca++ Flux Assay (HEK293 M1 cells, agonist mode). The test is classed as cell-based. The following applies: for Emax / M1 FDSS PA %: Percent Activity (PA); for Emax: read-out: M1 FDSS PA %; for EC50: geometric mean if tested more than once, read-out: M1 FDSS EC50. A digest of the protocol: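 In agonist mode, compound-induced intracellular Ca++ mobilization was recorded for 3 min by fluorescent imager. The cells were HEK293 stably expressing cloned human CHRM1, in Ca/Mg-free HBSS with 20 mM HEPES. Triplicate 11-point dose-responses were fitted by four-parameter regression and normalized to the carbachol EC100 response.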

Each structure is given as a SMILES string.

What is called EC50 is the concentration needed to bring the measured effect to its halfway point.

As to `Fc1ccc(OC[C@@H]2CCOC2)c(C2CCN([C@@H]3COC4(C3)CN(c3nncs3)C4)CC2)c1` [Example 5I, (S)-7-(4-(5-fluoro-2-(((R)-tetrahydrofuran-3-yl)methoxy)phenyl)piperidin-1-yl)-2-(1,3,4-thiadiazol-2-yl)-5-oxa-2-azaspiro[3.4]octane], in test [1], the Emax came to 71% and the EC50 was found to be 20 nM. Moreover, in test [2], the Emax was found to be 69% and the concentration giving a half-maximal response (EC50) came out at 775 nM.

On to `Fc1ccc(OC2CC3(COC3)C2)c(C2CCN([C@@H]3COC4(C3)CN(c3ncco3)C4)CC2)c1` [Example 4G, (S)-7-(4-(2-((2-oxaspiro[3.3]heptan-6-yl)oxy)-5-fluorophenyl)piperidin-1-yl)-2-(oxazol-2-yl)-5-oxa-2-azaspiro[3.4]octane], for which, in test [1], the Emax is 68% and the EC50 was determined as 17 nM. In addition, in test [2], the Emax was determined as 62% and the half-maximal effective concentration (EC50) was found to be 1760 nM.

On to `Fc1ccc(OC[C@H]2COCCO2)c(C2CCN([C@@H]3COC4(C3)CN(c3ncco3)C4)CC2)c1` [Example 4B, (S)-7-(4-(2-(((R)-1,4-dioxan-2-yl)methoxy)-5-fluorophenyl)piperidin-1-yl)-2-(oxazol-2-yl)-5-oxa-2-azaspiro[3.4]octane], for which, in test [1], the Emax is 77% and the EC50 was 4 nM. In test [2], the Emax was 117% and the EC50 came to 424 nM.

On to `Fc1cc(OC2CCOCC2)c(C2CCN([C@@H]3COC4(C3)CN(c3nnco3)C4)CC2)cc1F` [Example 2GG, (S)-7-(4-(4,5-difluoro-2-((tetrahydro-2H-pyran-4-yl)oxy)phenyl)piperidin-1-yl)-2-(1,3,4-oxadiazol-2-yl)-5-oxa-2-azaspiro[3.4]octane], for which, in test [1], the Emax was determined as 58% and the EC50 amounted to 87 nM. For the same molecule, in test [2], the Emax is 64% and the EC50 is 2900 nM.

Regarding `Fc1ccc(OC[C@@H]2COCCO2)c(C2CCN([C@@H]3COC4(C3)CN(c3nnco3)C4)CC2)c1` [Example 1F, (S)-7-(4-(2-(((S)-1,4-dioxan-2-yl)methoxy)-5-fluorophenyl)piperidin-1-yl)-2-(1,3,4-oxadiazol-2-yl)-5-oxa-2-azaspiro[3.4]octane], the Emax is 78% in test [1] and 83% in test [2]. Further, the figures for the EC50 in test [1] and in test [2] were 30 nM and 368 nM, respectively.

As to `c1ccc([C@@H]2CCOC2)c(C2CCN([C@@H]3COC4(C3)CN(c3nnco3)C4)CC2)c1` (single isomer, unassigned) [Example 3B, (S)-2-(1,3,4-oxadiazol-2-yl)-7-(4-(2-((S)-tetrahydrofuran-3-yl)phenyl)piperidin-1-yl)-5-oxa-2-azaspiro[3.4]octane or (S)-2-(1,3,4-oxadiazol-2-yl)-7-(4-(2-((R)-tetrahydrofuran-3-yl)phenyl)piperidin-1-yl)-5-oxa-2-azaspiro[3.4]octane], in test [1], the “M4 FDSS PA %” value is 86% and the concentration giving a half-maximal response (EC50) was determined as 69 nM. In addition, in test [2], the “M1 FDSS PA %” value came out at 82% and the EC50 was found to be 1120 nM.

Consider `Fc1ccc([C@H]2CCOC2)c(C2CCN([C@@H]3COC4(C3)CN(c3nnco3)C4)CC2)c1` (single isomer, unassigned) [Example 3F, (S)-7-(4-(5-fluoro-2-((R)-tetrahydrofuran-3-yl)phenyl)piperidin-1-yl)-2-(1,3,4-oxadiazol-2-yl)-5-oxa-2-azaspiro[3.4]octane or (S)-7-(4-(5-fluoro-2-((S)-tetrahydrofuran-3-yl)phenyl)piperidin-1-yl)-2-(1,3,4-oxadiazol-2-yl)-5-oxa-2-azaspiro[3.4]octane], for which, in test [1], the “M4 FDSS PA %” value is recorded as 80% and the half-maximal effective concentration (EC50) came to 23 nM. In test [2], the “M1 FDSS PA %” value worked out at 86% and the 50% effective concentration (EC50) came out at 595 nM.

For the molecule `c1ccc(C2CCN([C@@H]3COC4(C3)CN(c3ncco3)C4)CC2)c(C2CCOCC2)c1` [Example 4V, (S)-2-(oxazol-2-yl)-7-(4-(2-(tetrahydro-2H-pyran-4-yl)phenyl)piperidin-1-yl)-5-oxa-2-azaspiro[3.4]octane], in test [1], the Emax is 82% and the EC50 came to 46 nM. In addition, in test [2], the Emax is 72% and the EC50 came out at 1990 nM.

For `CC(C)(O)[C@H]1C[C@@H](Oc2ccc(F)cc2C2CCN([C@@H]3COC4(C3)CN(c3ncco3)C4)CC2)C1` (single isomer, unassigned) [Example 4T, 2-((1R,3s)-3-(4-fluoro-2-(1-((S)-2-(oxazol-2-yl)-5-oxa-2-azaspiro[3.4]octan-7-yl)piperidin-4-yl)phenoxy)cyclobutyl)propan-2-ol or 2-((1S,3r)-3-(4-fluoro-2-(1-((S)-2-(oxazol-2-yl)-5-oxa-2-azaspiro[3.4]octan-7-yl)piperidin-4-yl)phenoxy)cyclobutyl)propan-2-ol], in test [1], the “M4 FDSS PA %” value stood at 63% and the concentration for a half-maximal effect (EC50) was 25 nM. Besides, in test [2], the “M1 FDSS PA %” value was determined as 63% and the 50% effective concentration (EC50) is 909 nM.

Regarding `c1ccc(C2CCN([C@@H]3COC4(C3)CN(c3ncco3)C4)CC2)c(O[C@@H]2CCOC2)c1` [Example 4F, (S)-2-(oxazol-2-yl)-7-(4-(2-(((R)-tetrahydrofuran-3-yl)oxy)phenyl)piperidin-1-yl)-5-oxa-2-azaspiro[3.4]octane], in test [1], the Emax was 80% and the EC50 was found to be 15 nM. Moreover, in test [2], the Emax amounted to 90% and the EC50 was 540 nM.

With `CC(C)(O)CCOc1ccc(F)cc1C1CCN([C@@H]2COC3(C2)CN(c2nncs2)C3)CC1` [Example 5P, (S)-4-(2-(1-(2-(1,3,4-thiadiazol-2-yl)-5-oxa-2-azaspiro[3.4]octan-7-yl)piperidin-4-yl)-4-fluorophenoxy)-2-methylbutan-2-ol], in test [1], the Emax was 58% and the 50% effective concentration (EC50) stood at 86 nM. Further, in test [2], the Emax amounted to 91% and the EC50 was determined as 413 nM.

Source of the values: patent US11485742B2, “2-azaspiro[3.4]octane derivatives as M4 agonists” (NOVARTIS AG, priority 2019, dated 2022).
